{"source": "patent US11279931B2", "about": "“Therapeutic agent for a lung disease and/or method for screening for the same” (Chugai Seiyaku Kabushiki Kaisha, priority 2015, dated 2022)", "type_in_all_cases": "cell-based, C57BL/6 mice", "key": {"Arid5A mRNA": {"test_system": "Arid5A mRNA", "assay": "Arid5A mRNA expression by qPCR in LPS-stimulated peritoneal macrophages", "conditions": "test agent 20 μM, LPS (1 g/mL), 2 hours after LPS stimulation, vs absence of CPZ (FIG. 9)", "procedure": "(§1) Peritoneal macrophages from C57BL/6 mice (aged 6 to 8 weeks) were stimulated with LPS ([…]) in the presence or absence of a test agent (20 μM). The relative expression levels of mRNAs of Arid5A, IL-6, and TNF-α were determined in the stimulated peritoneal macrophages by quantitative PCR (qPCR). The expression level of Arid5A mRNA was determined 2 hours after LPS stimulation. The expression levels of IL-6 mRNA and TNF-α mRNA were determined 2 hours, 6 hours, 12 hours, and 24 hours after LPS stimulation. FIGS. 9 to 11 show the results when chlorpromazine (CPZ) was used as a test agent."}, "IL-6 mRNA": {"test_system": "IL-6 mRNA", "assay": "IL-6 mRNA expression by qPCR in LPS-stimulated peritoneal macrophages", "conditions": "test agent 20 μM, LPS (1 g/mL), vs absence of CPZ (FIG. 10)", "procedure": "as §1"}, "TNF-α mRNA": {"test_system": "TNF-α mRNA", "assay": "TNF-α mRNA expression by qPCR in LPS-stimulated peritoneal macrophages", "conditions": "test agent 20 μM, LPS (1 g/mL), determined 2, 6, 12 and 24 hours after LPS stimulation (FIG. 11)", "procedure": "as §1"}}, "data": [{"smiles": "CN(C)CCCN1c2ccccc2Sc2ccc(Cl)cc21", "note": "[CPZ, chlorpromazine]", "values": [{"measurement": "expression of Arid5A mRNA", "setting": "Arid5A mRNA", "result": "markedly suppressed"}, {"measurement": "expression of IL-6 mRNA", "setting": "IL-6 mRNA; 2 hours after LPS stimulation", "result": "markedly suppressed"}, {"measurement": "expression of IL-6 mRNA", "setting": "IL-6 mRNA; 6 hours after LPS stimulation", "result": "markedly suppressed"}, {"measurement": "expression of TNF-α mRNA", "setting": "TNF-α mRNA", "result": "no effect"}]}]}
